Results published in ChEMBL document CHEMBL1201862, “PubChem BioAssay data set” (2004).
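Compound exposure: 48 hours, 5 concentrations, 96-well plates. Abbreviation: GI50, concentration required for 50% inhibition of growth.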 Activity calls are given as the source filed them. Rule as the data show it: active = GI50 up to about 1.1 µM and inactive = higher.

Experiments:
Assay in all cases: growth of human tumour cells (NCI), 48 h
LXFL 529 = tested on: LXFL 529
DMS-273 = tested on: DMS-273
UO-31 = tested on: UO-31
786-0 = tested on: 786-0
ACHN = tested on: ACHN
SK-MEL-28 = tested on: SK-MEL-28
UACC-62 = tested on: UACC-62
KM-20L2 = tested on: KM-20L2
SK-MEL-2 = tested on: SK-MEL-2
KM12 = tested on: KM12
SF-295 = tested on: SF-295
RPMI-8226 = tested on: RPMI-8226
SW-620 = tested on: SW-620
U-251 = tested on: U-251
LOX IMVI = tested on: LOX IMVI
OVCAR-5 = tested on: OVCAR-5
Malme-3M = tested on: Malme-3M
DMS-114 = tested on: DMS-114
NCI-H23 = tested on: NCI-H23
NCI-H522 = tested on: NCI-H522
DLD-1 = tested on: DLD-1
HOP-62 = tested on: HOP-62
SNB-19 = tested on: SNB-19
K562 = tested on: K562
RXF 393 = tested on: RXF 393
OVCAR-4 = tested on: OVCAR-4
HOP-18 = tested on: HOP-18
SF-539 = tested on: SF-539
TK-10 = tested on: TK-10
IGROV-1 = tested on: IGROV-1
EKVX = tested on: EKVX
OVCAR-8 = tested on: OVCAR-8
HCT-15 = tested on: HCT-15
NCI-H460 = tested on: NCI-H460
CAKI-1 = tested on: CAKI-1
SF-268 = tested on: SF-268
SK-OV-3 = tested on: SK-OV-3
HL-60 = tested on: HL-60
HCT-116 = tested on: HCT-116
HT-29 = tested on: HT-29
COLO 205 = tested on: COLO 205
HOP-92 = tested on: HOP-92
UACC-257 = tested on: UACC-257
SN12C = tested on: SN12C
MOLT-4 = tested on: MOLT-4
OVCAR-3 = tested on: OVCAR-3
NCI-H226 = tested on: NCI-H226
HCC 2998 = tested on: HCC 2998
A549 = tested on: A549
SR = tested on: SR
M19-MEL = tested on: M19-MEL
SNB-78 = tested on: SNB-78
A498 = tested on: A498
SNB-75 = tested on: SNB-75
M14 = tested on: M14
SK-MEL-5 = tested on: SK-MEL-5
NCI/ADR-RES = tested on: NCI/ADR-RES
T47D = tested on: T47D
XF498 = tested on: XF498
Hs-578T = tested on: Hs-578T
DU-145 = tested on: DU-145
PC-3 = tested on: PC-3
BT-549 = tested on: BT-549
CCRF-CEM = tested on: CCRF-CEM
MDA-MB-435 = tested on: MDA-MB-435
MCF7 = tested on: MCF7
MDA-N = tested on: MDA-N
MDA-MB-231 = tested on: MDA-MB-231

Measured: GI50

C=C(C)C1CC2C(C)=C(OC(C)=O)C1n1c(=O)c3cc4ccccc4cc3c(=O)n12 (stereo not given)
57.5 µM: HCT-15
inactive: LXFL 529 69.7 µM | DMS-273 54.2 µM | UO-31 > 83 µM | 786-0 > 95.5 µM | ACHN > 82.8 µM | SK-MEL-28 > 100 µM | UACC-62 31.8 µM | KM-20L2 > 93.5 µM | SK-MEL-2 > 100 µM | KM12 > 82 µM | SF-295 > 71.6 µM | RPMI-8226 36 µM | SW-620 > 71.4 µM | U-251 63.1 µM | LOX IMVI > 84.3 µM | OVCAR-5 > 100 µM | Malme-3M > 89.3 µM | DMS-114 65.8 µM | NCI-H23 50.1 µM | NCI-H522 51.5 µM | DLD-1 53.1 µM | HOP-62 > 100 µM | SNB-19 > 100 µM | K562 46.2 µM | RXF 393 24.2 µM | OVCAR-4 73.3 µM | HOP-18 > 100 µM | SF-539 > 100 µM | TK-10 > 100 µM | IGROV-1 > 77.1 µM | EKVX 64.1 µM | OVCAR-8 > 68.7 µM | NCI-H460 62.5 µM | CAKI-1 62.2 µM | SF-268 81.3 µM | SK-OV-3 > 100 µM | HL-60 1.41 µM | HCT-116 > 76.7 µM | HT-29 > 80.9 µM | COLO 205 > 100 µM | HOP-92 28.6 µM | UACC-257 > 100 µM | SN12C 98.2 µM | MOLT-4 32.7 µM | OVCAR-3 46.9 µM | NCI-H226 34.7 µM | HCC 2998 70.8 µM | A549 > 72.3 µM | SR 36 µM | M19-MEL 74 µM | SNB-78 95.9 µM | A498 > 84.5 µM | SNB-75 42 µM | M14 > 100 µM | SK-MEL-5 87.3 µM

CCc1ccc(NCc2cc(OC)c(OC)c(OC)c2)cc1
0.164 µM: HCT-15
active: NCI/ADR-RES 0.0611 µM | KM-20L2 0.267 µM | KM12 0.0738 µM | SF-295 0.197 µM | RPMI-8226 0.367 µM | Malme-3M 0.232 µM | DMS-114 0.457 µM | T47D 0.302 µM | NCI-H23 0.611 µM | NCI-H522 0.186 µM | DLD-1 0.492 µM | HOP-62 0.532 µM | SNB-19 0.522 µM | K562 0.0845 µM | RXF 393 0.211 µM | XF498 0.933 µM | Hs-578T 0.261 µM | DU-145 0.716 µM | PC-3 0.305 µM | HL-60 0.056 µM | HCT-116 0.0998 µM | HT-29 0.176 µM | BT-549 < 0.01 µM | MOLT-4 0.29 µM | OVCAR-3 0.211 µM | CCRF-CEM 0.284 µM | SR < 0.0282 µM | M19-MEL 0.413 µM
inactive: ACHN 2.24 µM | OVCAR-5 3.02 µM | OVCAR-4 18.2 µM | EKVX 4.2 µM | HOP-92 1.24 µM | NCI-H226 3.3 µM

COc1ccccc1/C=C1\Sc2scc(-c3cccc([N+](=O)[O-])c3)[n+]2C1=O
2.11 µM: HCT-15
inactive: NCI/ADR-RES 6.84 µM | UO-31 2.86 µM | 786-0 2.76 µM | ACHN 3.06 µM | SK-MEL-28 15 µM | UACC-62 8.51 µM | SK-MEL-2 12.8 µM | KM12 10.8 µM | SF-295 17.5 µM | RPMI-8226 3.18 µM | SW-620 4.32 µM | MDA-MB-435 4.99 µM | U-251 14.9 µM | LOX IMVI 1.71 µM | OVCAR-5 15.6 µM | Malme-3M 3.3 µM | T47D 7.23 µM | NCI-H23 10.4 µM | NCI-H522 1.34 µM | HOP-62 13.9 µM | SNB-19 12.1 µM | MCF7 2 µM | K562 2.79 µM | RXF 393 4.58 µM | OVCAR-4 13.3 µM | SF-539 1.62 µM | TK-10 2.83 µM | IGROV-1 7.46 µM | EKVX 11.4 µM | Hs-578T 18.5 µM | DU-145 13.5 µM | OVCAR-8 7.19 µM | NCI-H460 13.2 µM | CAKI-1 2.43 µM | SF-268 4.78 µM | SK-OV-3 13.2 µM | MDA-N 2.87 µM | PC-3 15.7 µM | HCT-116 4.69 µM | HT-29 3.27 µM | COLO 205 2.11 µM | HOP-92 4.98 µM | UACC-257 7.11 µM | MDA-MB-231 5.04 µM | SN12C 2.88 µM | BT-549 2.55 µM | MOLT-4 1.28 µM | OVCAR-3 9.75 µM | NCI-H226 12.4 µM | HCC 2998 10.4 µM | A549 17.1 µM | SR 2.19 µM | A498 21.3 µM | SNB-75 12.8 µM | M14 3.93 µM | SK-MEL-5 2.53 µM
active: HL-60 0.26 µM | CCRF-CEM 0.476 µM
